Experimental data from patent publication US20090188497A1, “MEDICAL PRODUCT CONTAINING TIOTROPIUM” (Boehringer Ingelheim International GmbH, priority 2003, published 2009).

Test: In-use stability test of FPD, capsules in opened blister at 40° C. and 75% Rh (tests S3-S5)
Format: physicochemical
Conditions: conclusion of the tests on SPIRIVA
Description: SPIRIVA® powder formulation in bulk and SPIRIVA® capsules from our local pharmacy were introduced to the laboratory together with the […]®. The laboratory was set up to perform in-vitro tests according to European Pharmacopoeia (EP) and US Pharmacopoeia (USP) using two Andersen cascade impactors. All analytical work where then performed according to standardized methods for Physical Tests and Determinations for Aerosols, metered-dose inhalers and dry powder inhalers described in pharmacopoeias (e.g. USP 2002<601>) using a state of the art High Performance Liquid Chromatograph (HPLC) system.
(§1) From the blister holding 5 capsules one capsule was withdrawn and the remaining 4 capsules were put 4 days into 40° C. and 75% Rh. The blister containing the 4 capsules was then put in an exicator for 2 h before tests were performed. The test was performed with 4 kPa pressure drop over the […]® at room temperature and laboratory ambient conditions.
as §1, with “put 13” for “put 4”, “conditions. […]” for “conditions.”

For `C[N+]1(C)[C@@H]2C[C@@H](OC(=O)C(O)(c3cccs3)c3cccs3)C[C@H]1[C@@H]1O[C@@H]12` [tiotropium], the sensitivity to moisture was “extremely sensitive to moisture”.
